Experimental findings from patent US9475817B2 (BRISTOL-MYERS SQUIBB COMPANY, priority 2012, dated 2016) are described below.

The structures appear in SMILES notation.

For assay [1], the target named is CK1δ (Homo sapiens (Human), UniProt P48730). The assay is described as follows: CK1δ kinase assay (Caliper LabChip, fluoresceinated peptide substrate). In kind it is biochemical. The following applies: 200 pM CK1δ, 50 μM ATP, 1.5 μM peptide substrate, 22 hours room temperature. How it is done:
(§1) CK1ε and CK1δ Kinase Assays
(§2) The kinase assay was performed in V-bottom 384-well plates. […] The reaction was incubated at room temperature for 22 hours and terminated by adding 45 μl of 35 mM EDTA to each sample. […] Compounds were dissolved at 10 mM in dimethylsulfoxide (DMSO) and evaluated at eleven concentrations. IC50 values were derived by non-linear regression analysis.

Assay [2] addresses CK1ε (Homo sapiens (Human), UniProt P49674). The assay is described as follows: CK1ε kinase assay (Caliper LabChip, fluoresceinated peptide substrate). In kind it is biochemical. The following applies: 200 pM CK1ε, 50 μM ATP, 1.5 μM peptide substrate, 22 hours room temperature. How it is done:
as §1, §2

Chain of CK1ε (P49674 whole entry): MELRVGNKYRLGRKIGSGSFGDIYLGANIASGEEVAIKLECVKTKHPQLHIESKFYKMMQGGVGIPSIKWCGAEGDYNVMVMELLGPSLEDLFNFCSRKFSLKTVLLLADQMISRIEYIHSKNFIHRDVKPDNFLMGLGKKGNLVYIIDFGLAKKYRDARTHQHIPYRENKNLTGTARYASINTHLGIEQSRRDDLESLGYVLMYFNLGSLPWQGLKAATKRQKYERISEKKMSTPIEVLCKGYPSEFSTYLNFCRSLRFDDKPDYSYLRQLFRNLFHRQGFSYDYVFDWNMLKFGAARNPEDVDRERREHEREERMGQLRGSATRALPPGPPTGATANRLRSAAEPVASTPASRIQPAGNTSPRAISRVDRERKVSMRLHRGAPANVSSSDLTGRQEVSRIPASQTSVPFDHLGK
Chain of CK1δ (P48730 whole entry): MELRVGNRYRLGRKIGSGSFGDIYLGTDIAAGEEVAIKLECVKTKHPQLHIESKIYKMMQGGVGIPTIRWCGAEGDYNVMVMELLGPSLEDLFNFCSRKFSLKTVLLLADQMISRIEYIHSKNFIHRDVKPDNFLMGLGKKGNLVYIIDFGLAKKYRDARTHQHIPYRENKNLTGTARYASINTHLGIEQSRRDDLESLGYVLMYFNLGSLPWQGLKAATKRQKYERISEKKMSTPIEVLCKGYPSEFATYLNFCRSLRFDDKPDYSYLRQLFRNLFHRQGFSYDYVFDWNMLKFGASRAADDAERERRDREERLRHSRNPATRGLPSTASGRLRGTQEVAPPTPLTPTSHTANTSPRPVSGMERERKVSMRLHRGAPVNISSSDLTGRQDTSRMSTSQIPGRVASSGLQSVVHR

The IC50 is the point on the concentration scale where inhibition reaches its midpoint. Low values mean greater potency in that assay, high ones weaker potency in that assay. In the case of `Cn1nc(-c2ccc(F)cc2)c(-c2ccc3nc(NC(=O)c4ccnc(N5CCOCC5)c4)cn3n2)c1N1CCN(CCC(F)(F)F)CC1` [Compound 135, N-(6-(3-(4-Fluorophenyl)-1-methyl-5-(4-(3,3,3-trifluoropropyl)piperazin-1-yl)-1H-pyrazol-4-yl)imidazo[1,2-b]pyridazin-2-yl)-2-morpholinoisonicotinamide], the IC50 in assay [1] was found to be 1.6 nM; in assay [2] it was 35 nM.

`Cn1cc(-c2ccc3nc(NC(=O)c4ncccc4Cl)cn3n2)c(-c2ccc(F)cc2)n1` [Compound 36, 3-chloro-N-(6-(3-(4-fluorophenyl)-1-methyl-1H-pyrazol-4-yl)imidazo[1,2-b]pyridazin-2-yl)picolinamide]: the values for the IC50 in assay [1] and in assay [2] were 7.3 nM and 13.7 nM, respectively.

Take `Cc1c[nH]nc1C(=O)Nc1cn2nc(-c3cn(C)nc3-c3ccc(F)cc3)ccc2n1` [Compound 34, N-(6-(3-(4-fluorophenyl)-1-methyl-1H-pyrazol-4-yl)imidazo[1,2-b]pyridazin-2-yl)-4-methyl-1H-pyrazol-3-carboxamide]: the IC50 in assay [1] came to 3.6 nM; in assay [2], 18.7 nM.

For the compound `COc1ncc(C(=O)Nc2cn3nc(-c4cn(C)nc4-c4ccc(F)cc4)ccc3n2)cn1` [Compound 84, N-(6-(3-(4-fluorophenyl)-1-methyl-1H-pyrazol-4-yl)imidazo[1,2-b]pyridazin-2-yl)-2-methoxypyrimidine-5-carboxamide], the results for the 50% inhibitory concentration (IC50) in assay [1] and in assay [2] were 435 nM and 1020 nM, respectively.

As to `Cc1nc(-c2cccnc2)sc1C(=O)Nc1cn2nc(-c3c(-c4ccc(F)cc4)nn(C)c3C3CCOCC3)ccc2n1` [Compound 201, N-(6-(3-(4-Fluorophenyl)-1-methyl-5-(tetrahydro-2H-pyran-4-yl)-1H-pyrazol-4-yl)imidazo[1,2-b]pyridazin-2-yl)-4-methyl-2-(pyridin-3-yl)thiazole-5-carboxamide], the IC50 in assay [1] came out at 0.3 nM; in assay [2], 2.3 nM.

Consider `Cn1nc(-c2ccc(F)cc2)c(-c2ccc3nc(NC(=O)c4ccnc(N5CCOCC5)c4)cn3n2)c1C1CCN(CCC(F)(F)F)CC1` [Compound 161, N-(6-(3-(4-Fluorophenyl)-1-methyl-5-(1-(3,3,3-trifluoropropyl)piperidin-4-yl)-1H-pyrazol-4-yl)imidazo[1,2-b]pyridazin-2-yl)-2-morpholinoisonicotinamide], for which the IC50 stood at 1.7 nM in assay [1] and 22.9 nM in assay [2].

Turning to `Cn1nc(-c2ccc(F)cc2)c(-c2ccc3nc(NC(=O)c4ccnc(N5CCOCC5)c4)cn3n2)c1C1CCOCC1` [Compound 198, N-(6-(3-(4-Fluorophenyl)-1-methyl-5-(tetrahydro-2H-pyran-4-yl)-1H-pyrazol-4-yl)imidazo[1,2-b]pyridazin-2-yl)-2-morpholinoisonicotinamide], the results for the IC50 in assay [1] and in assay [2] were 0.5 nM and 4.8 nM, respectively.

Consider `O=C(Nc1cn2nc(-c3cn(C4CC4)nc3-c3ccc(F)cc3)ccc2n1)c1ccncc1F` [Compound 106, N-(6-(1-cyclopropyl-3-(4-fluorophenyl)-1H-pyrazol-4-yl)imidazo[1,2-b]pyridazin-2-yl)-3-fluoroisonicotinamide], for which the IC50 in assay [1] was 3.5 nM; in assay [2], 14 nM.

As for `CN1CCN(c2c(-c3ccc4nc(NC(=O)c5ccnc(F)c5)cn4n3)c(-c3ccc(F)cc3)nn2C)CC1` [Compound 116, 2-fluoro-N-(6-(3-(4-fluorophenyl)-1-methyl-5-(4-methylpiperazin-1-yl)-1H-pyrazol-4-yl)imidazo [1,2-b]pyridazin-2-yl)isonicotinamide], the IC50 in assay [1] was found to be 0.7 nM; in assay [2], 9.3 nM.

Regarding `COc1cc(C(=O)Nc2cn3nc(-c4cn(C)nc4-c4ccc(F)cc4)ccc3n2)ccn1` [Compound 49, N-(6-(3-(4-fluorophenyl)-1-methyl-1H-pyrazol-4-yl)imidazo[1,2-b]pyridazin-2-yl)-2-methoxyisonicotinamide], the IC50 stood at 6.1 nM in assay [1] and 13.6 nM in assay [2].
